# Results from ChEMBL document CHEMBL5325414, “Novel neuroprotective pyromeconic acid derivatives with concurrent anti-Aβ deposition, anti-inflammatory, and anti-oxidation properties for treatment of Alzheimer's disease” (Eur J Med Chem, 2023).
# The source made the active and inactive calls. The rule behind the calls is not given here.
# Legend:
# [1] = target: T1, Amyloid-beta precursor protein (Homo sapiens, UniProt P05067); experiment: Inhibition of amyloid beta (1 to 42) (unknown origin) self aggregation at 50 uM relative to control
# T1 sequence (P05067 whole entry): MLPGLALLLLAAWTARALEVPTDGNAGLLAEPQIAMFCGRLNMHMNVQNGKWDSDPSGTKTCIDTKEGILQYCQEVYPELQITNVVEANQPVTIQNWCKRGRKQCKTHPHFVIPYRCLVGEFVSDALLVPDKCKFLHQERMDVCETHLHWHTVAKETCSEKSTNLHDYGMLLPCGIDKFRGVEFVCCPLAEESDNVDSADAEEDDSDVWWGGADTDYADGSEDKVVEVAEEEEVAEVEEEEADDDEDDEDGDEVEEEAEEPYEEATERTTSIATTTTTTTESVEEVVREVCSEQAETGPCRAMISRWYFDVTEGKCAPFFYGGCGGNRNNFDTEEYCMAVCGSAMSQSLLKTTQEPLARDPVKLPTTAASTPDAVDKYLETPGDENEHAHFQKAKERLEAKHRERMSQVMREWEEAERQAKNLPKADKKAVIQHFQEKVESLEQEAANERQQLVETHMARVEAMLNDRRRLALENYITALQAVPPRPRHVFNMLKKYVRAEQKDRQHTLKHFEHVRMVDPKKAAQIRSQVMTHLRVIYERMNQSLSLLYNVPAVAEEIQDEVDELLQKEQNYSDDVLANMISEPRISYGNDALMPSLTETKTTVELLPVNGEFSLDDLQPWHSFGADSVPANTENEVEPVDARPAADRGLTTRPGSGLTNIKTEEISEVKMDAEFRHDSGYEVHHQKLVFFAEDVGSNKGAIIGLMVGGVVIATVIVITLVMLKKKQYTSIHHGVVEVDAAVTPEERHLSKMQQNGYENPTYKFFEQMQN
# [2] = Metal chelating activity assessed as compound-Cu2+ complex formation by measuring shift at 1:1 at 50 uM in PBS buffer 7.4 by UV-vis spectrometric analysis
# [3] = Metal chelating activity assessed as compound-Mg2+ complex formation by optical shift at 50 uM in PBS buffer 7.4 by UV-vis spectrometric analysis
# [4] = target: T1, Amyloid-beta precursor protein; experiment: Inhibition of Cu2+ induced of amyloid beta (1 to 42) aggregation (unknown origin)
# [5] = target: T1, Amyloid-beta precursor protein; experiment: Inhibition of amyloid beta (1 to 42) (unknown origin) self aggregation assessed as shorter in amyloid fibrils compound addition at 50 uM after fibrilation for 24 hrs
# BV-2 [6] = experiment: Neuroprotective activity against amyloid beta (1 to 42) induced neurotoxicity in mouse BV-2 cells assessed as survival of cells treated for 24 hrs; assay type: functional, cell-based; details: dose 2.5-10 µM
# BV-2 [7] = experiment: Neuroprotective activity against amyloid beta (1 to 42) induced neurotoxicity in mouse BV-2 cells assessed as survival of cells at 10 uM treated for 24 hrs relative to control; assay type: functional
# BV-2 [8] = experiment: Effect of amyloid beta (1 to 42) indued apoptosis in mouse BV-2 cells assessed as viable cells at 2.5 uM measured by propidium iodide staining based flow cytometric analysis (reference value: 61.29%); assay type: functional; details: read-out: Activity
# BV-2 [9] = experiment: Effect of amyloid beta (1 to 42) indued apoptosis in mouse BV-2 cells assessed as late apoptotic cells at 2.5 uM measured by propidium iodide staining based flow cytometric analysis (reference value: 6.88%); assay type: functional
# BV-2 [10] = experiment: Effect of amyloid beta (1 to 42) indued apoptosis in mouse BV-2 cells assessed as late apoptotic cells at 5 uM measured by propidium iodide staining based flow cytometric analysis (reference value: 6.88%); assay type: functional
# BV-2 [11] = experiment: Effect of amyloid beta (1 to 42) indued apoptosis in mouse BV-2 cells assessed as viable cells at 10 uM measured by propidium iodide staining based flow cytometric analysis (reference value: 61.29%); assay type: functional; details: read-out: Activity
# BV-2 [12] = experiment: Effect on H2O2 induced reactive oxygen species in mouse BV-2 cells assessed as reduction of ROS generation at 5 uM by fluorescence microscopic analysis relative to control; assay type: functional; parameters: scale not given: the % may be the effect or the level left
# BV-2 [13] = experiment: Effect on H2O2 induced reactive oxygen species in mouse BV-2 cells assessed as reduction of ROS generation at 20 uM by fluorescence microscopic analysis relative to control; assay type: functional; parameters: scale not given: the % may be the effect or the level left
# [14] = Half life in Sprague-Dawley rat at 15 mg/kg, IG; assay type: ADME, organism-based; details: in vivo, po
# [15] = Tmax in Sprague-Dawley rat at 15 mg/kg, IG; assay type: ADME, organism-based; details: in vivo, po
# [16] = Drug concentration in plasma of Sprague-Dawley rat at 15 mg/kg, IG measured after 0.083 hrs; assay type: ADME, organism-based; details: po
# [17] = Drug concentration in plasma of Sprague-Dawley rat at 15 mg/kg, IG measured after 0.5 hrs; assay type: ADME, organism-based; details: po
# [18] = Drug concentration in plasma of Sprague-Dawley rat at 15 mg/kg, IG measured after 1 hrs; assay type: ADME, organism-based; details: po
# [19] = Drug concentration in hippocampus of Sprague-Dawley rat at 15 mg/kg, IG measured after 0.167 hrs; assay type: ADME, organism-based; details: po, read-out: Drug uptake
# [20] = Drug concentration in hippocampus of Sprague-Dawley rat at 15 mg/kg, IG measured after 0.5 hrs; assay type: ADME, organism-based; details: po, read-out: Drug uptake
# [21] = Drug concentration in hippocampus of Sprague-Dawley rat at 15 mg/kg, IG measured after 1 hrs; assay type: ADME, organism-based; details: po, read-out: Drug uptake
# [22] = Drug concentration in hippocampus of Sprague-Dawley rat at 15 mg/kg, IG measured after 4 hrs; assay type: ADME, organism-based; details: po, read-out: Drug uptake
# [23] = Ratio of drug concentration in hippocampus to plasma of Sprague-Dawley rat at 15 mg/kg, IG measured after 0.083 hrs; assay type: ADME, organism-based; details: po
# [24] = Ratio of drug concentration in hippocampus to plasma of Sprague-Dawley rat at 15 mg/kg, IG measured after 0.167 hrs; assay type: ADME, organism-based; details: po
# [25] = Ratio of drug concentration in hippocampus to plasma of Sprague-Dawley rat at 15 mg/kg, IG measured after 0.25 hrs; assay type: ADME, organism-based; details: po
# [26] = Ratio of drug concentration in hippocampus to plasma of Sprague-Dawley rat at 15 mg/kg, IG measured after 0.5 hrs; assay type: ADME, organism-based; details: po
# [27] = Ratio of drug concentration in hippocampus to plasma of Sprague-Dawley rat at 15 mg/kg, IG measured after 1 hrs; assay type: ADME, organism-based; details: po
# [28] = Acute toxicity in mouse assessed as change in dietary activity at 2000 mg/kg, IG administered as single dose measured after 14 days; assay type: organism-based; details: in vivo, po, 336 h, time 14 day
# [29] = Acute toxicity in mouse assessed as histopathological change in heart at 2000 mg/kg, IG administered as single dose measured after 14 days measured by H and E staining analysis; assay type: organism-based; details: in vivo, po, 336 h, time 14 day
# [30] = Acute toxicity in mouse assessed as histopathological change in spleen at 2000 mg/kg, IG administered as single dose measured after 14 days measured by H and E staining analysis; assay type: organism-based; details: in vivo, po, 336 h, time 14 day
# [31] = Acute toxicity in mouse assessed as lethal dose administered as single IG dose measured after 14 days measured by H and E staining analysis; details: in vivo, po, time 14 day
# Mus musculus [32] = experiment: Cognitive enhancement in scopolamine induced ICR alzheimer's disease mouse assessed as gain in body weight pretreated with scopolamine at 3 mg/kg, ip for 31 days followed by compound addition at 20 mg/kg, po at day 7 to 31; assay type: functional, organism-based; details: time 25.0 day
# Mus musculus [33] = experiment: Anti alzheimer activity in scopolamine induced anxiety in ICR mouse assessed as relieved anxiety pretreated with scopolamine at 3 mg/kg, ip for 31 days followed by compound addition at 20 mg/kg, po at day 7 to 31; assay type: functional, organism-based; details: time 25.0 day
# Mus musculus [34] = experiment: Anti alzheimer activity in scopolamine induced anxiety in ICR mouse assessed as decrease in motor trajectories pretreated with scopolamine at 3 mg/kg, ip for 31 days followed by compound addition at 20 mg/kg, po at day 7 to 31 by morris water maze test; assay type: functional, organism-based; details: time 25.0 day
# Mus musculus [35] = experiment: Anti alzheimer activity in scopolamine induced anxiety in ICR mouse assessed as improved memory function pretreated with scopolamine at 3 mg/kg, ip for 31 days followed by compound addition at 20 mg/kg, po at day 7 to 31 by morris water maze test; assay type: functional, organism-based; details: time 25.0 day
# Mus musculus [36] = experiment: Anti alzheimer activity in scopolamine induced anxiety in ICR mouse assessed as improved cognitive function pretreated with scopolamine at 3 mg/kg, ip for 31 days followed by compound addition at 20 mg/kg, po at day 7 to 31 by morris water maze test; assay type: functional, organism-based; details: time 25.0 day
# Mus musculus [37] = experiment: Neuroprotective effect in scopolamine induced cognitively impaired mouse assessed as recovery of decreased Nissl bodies in CA3 region at hippocampus at 20 mg/kg by Nissl staining analysis; assay type: functional, organism-based
# Mus musculus [38] = experiment: Neuroprotective effect in scopolamine induced cognitively impaired mouse assessed as […] of amyloid beta plaque deposition at 20 mg/kg by ELISA analysis; assay type: functional, organism-based
# Mus musculus [39] = experiment: In vivo antiinflammatory activity in scopolamine induced cognitive impaired ICR mouse assessed as decrease in IL-1 levels in cortex; assay type: functional, organism-based
# Mus musculus [40] = experiment: In vivo antiinflammatory activity in scopolamine induced cognitive impaired ICR mouse assessed as decrease in GFAP levels in cortex; assay type: functional, organism-based
compound,measurement,setting,value
O=c1ccoc(/C=C/c2ccc(O)c(O)c2)c1O,inhibition,[1],80.3%
same,Activity,[2],Active
same,Activity,[3],inactive
same,IC50,[4],3.69 µM
same,Activity,[5],Active
same,Activity,BV-2 [6],Dose-Dependent Effect
same,Activity,BV-2 [7],75.5%
same,viability at 2.5 µM,BV-2 [8],76.2%
same,Activity,BV-2 [9],10.2%
same,Activity,BV-2 [10],13.4%
same,viability at 10 µM,BV-2 [11],63.1%
same,Activity,BV-2 [12],19.45%
same,Activity,BV-2 [13],45.48%
same,half-life,[14],14 h
same,Tmax,[15],0.17 h
same,concentration at 0.083 h,[16],18.5 ng/mL
same,concentration at 0.5 h,[17],2.68 ng/mL
same,concentration at 1 h,[18],1.77 ng/mL
same,concentration at 0.167 h,[19],1.41 ng/mL
same,concentration at 0.5 h,[20],5.4 ng/mL
same,concentration at 1 h,[21],8.72 ng/mL
same,concentration at 4 h,[22],4.89 ng/mL
same,Kp at 0.083 h,[23],0.07
same,Kp at 0.167 h,[24],0.07
same,Kp at 0.25 h,[25],0.5
same,Kp at 0.5 h,[26],2.27
same,Kp at 1 h,[27],5.04
same,Activity,[28],Non-Toxic
same,Activity,[29],Non-Toxic
same,Activity,[30],Non-Toxic
same,LD50 at 336 h,[31],≥ 2000 mg/kg
same,Activity,Mus musculus [32],Active
same,Activity,Mus musculus [33],Active
same,Activity,Mus musculus [34],Active
same,Activity,Mus musculus [35],Active
same,Activity,Mus musculus [36],Active
same,Activity,Mus musculus [37],Active
same,Activity,Mus musculus [38],Active
same,Activity,Mus musculus [39],Active
same,Activity,Mus musculus [40],Active
